Results from patent publication US12691124B2, “Methods of controlling and improving brain health” (ICAHN SCHOOL OF MEDICINE AT MOUNT SINAI, priority 2019, dated 2026).

Experiments:
primary cortical neurons [1] = test: Aβ1-43 oligomer induced neuronal death; type: cell-based, mouse; conditions: Aβ1-43 oligomers, 1 week pretreatment
From the text: While glutamate toxicity is a widely used and clinically relevant assay, there are other factors that contribute to neuronal death in vivo such as lack of oxygen which occurs after stroke or protein aggregates which are observed in many neurodegenerative disorders. To understand if the observed protective effect is specific to glutamate toxicity, neurons were exposed to either hypoxic (1% O2) environments or Aβ1-43 oligomers (FIGS. 10E and 10F).
IBET treatment protects neurons from neurotoxin-induced cell death (FIGS. 22C-22E). Dot plots show the percentage of cells that are propidium iodide negative after different neurotoxic insults when pre-treated with either control or iBET for 1 week. 6 hours and 24 hours after 1 mM glutamate exposure are shown in FIG. 22C; 18 hours, 24 hours, and 48 hours of hypoxia (1% O2) are shown in FIG. 22D; and 48 hours and 72 hours of Aβ1-43 oligomer exposure (10 μM) are shown in FIG. 22E. Two-way repeated measures ANOVA with multiple comparisons, n=3 per group, ***p<0.001. Experiments were repeated a minimum of three times.

wild-type mice = test: Classic fear conditioning in wild-type mice; type: in vivo, mouse; conditions: five weeks of daily IBET858 injections
Procedure: […] Albans, VT) as described previously (Schaefer et al., “Control of Cognition and Adaptive Behavior by the GLP/G9a Epigenetic Suppressor Complex,” Neuron 64:678-691 (2009), which is hereby incorporated by reference in its entirety). Briefly, a mouse was placed in the test chamber (house lights on) and allowed to explore freely for 2 min. A white noise (80 dB) was then presented for 30 s, co-terminating with a mild foot shock (2 s, 0.5 mA). Two minutes later the same sequence of auditory cue-shock pairing was repeated. The mouse was removed from the chamber 30 s later and returned to its home cage. Freezing behavior was continuously recorded during the time spent in the test chamber. […] Twenty-four hours later, the mouse was placed back into the test chamber for 5 min and freezing behavior was recorded (context test). Two hours later, the mouse was tested for freezing in response to the auditory cue. Environmental and contextual cues were changed for the auditory cue test. The auditory cue test was divided into two phases: 3 min in the absence of the auditory cue and 3 min of the auditory cue. The time freezing during each test was converted to a percentage of freezing value.
To understand if these cellular and molecular improvements impact behavior, memory was assessed using the classic fear conditioning paradigm.

C57bl/6 mice = test: Brain gene expression in IBET858 treated mice; type: in vivo, mouse
Procedure: In vivo I-BET858 treatment. IBET858 was developed and validated by GlaxoSmithKline. I-BET858 solutions used for in vivo studies (3 mg/ml) were prepared in 10% Kleptose buffer with 5% DMSO (pH 6.5) and maintained at 4° C. I-BET858 was made fresh daily, buffers were made fresh each week. 30 mg/kg I-BET858 or vehicle (Kleptose buffer pH=6.5) was delivered by i.p injection. For acute treatment, 6-week-old mice received a single I-BET858 injection. […] Gene expression and behavioral changes were assessed in 6 weeks old mice at 4 h (acute, n=8-10 for behavior, n=2 for gene expression analysis) or 12 h (chronic, n=10 for behavior, n=2 for gene expression analysis) after the (last) I-BET858 injection, respectively.
RNA Isolation. For in vitro gene expression analysis, neuronal culture plates were washed once with PBS, and TRIzol was added directly to cultures to isolate RNA (n=3 per group). For in vivo gene expression analysis, mice were anesthetized with CO2 and decapitated. The striata from two control and acute or chronic I-BET treated mice were rapidly dissected on ice and frozen in liquid nitrogen. RNA extraction from frozen samples was performed using TRIzol/Chloroform according to manufacturer's instructions (Invitrogen Corporation, Carlsbad, CA). RNA was precipitated overnight at −80° C. in isopropanol with 0.15 M sodium acetate, washed twice with 70% ethanol, air-dried, and resuspended in RNase-free water. RNA samples were purified using Rneasy Micro columns (Qiagen) with on-column DNAse treatment as specified by manufacturer. RNA integrity was assayed using nanodrop and RNA Pico chip on Bioanalyzer 2100 (Agilent, Santa Clara, CA) for quality RIN>9.
IBET treatment induces neuroprotective gene expression changes in the hippocampus of mice in vivo (FIG. 23A).

primary cortical neurons [2] = test: Axion multielectrode array recording of neuronal firing; type: cell-based, mouse
Procedure: Axion Recordings. A 48-well multielectrode array plate (Axion) was coated with 0.1% PEI for 1 hour at 37 degrees and washed four times with deionized water. Plates were dried overnight at room temperature in a sterile hood. Plates were incubated with 20 ug/ml laminin for one hour at 37 degrees before cells were seeded onto the plate. Primary cortical neurons were plated 50,000 per well. Plates were equilibrated on the Axion Maestro system at 37 degrees C. for 5 minutes before each 10 minute recording session. Baseline activity was recorded at day 7 before cells were treated with either I-BET858 (1 um) or DMSO. Electrical activity was recorded every day until day 21 and then at regular intervals until activity was no longer detected.
Therefore to determine the effect of chronic BET inhibition on electrical activity, neurons were cultured on the Axion Microelectrode array system in the presence of IBET858. Primary cortical neurons first show electrical activity at day 7 which gradually increases over time, peaking around day 14 consistent with published time courses of synaptogenesis and electrical activity in vitro. […] In one experiment, IBET858 treated neurons lived until day 77, 86% longer than control neurons.
One could argue that the protective effect of IBET858 was caused by a decreased sensing of glutamate levels. […] To further explore this hypothesis, neuronal firing in response to a sub-lethal dose of glutamate (50 μM) was measured using the Axion system (FIG. 10A). At day 14, neurons treated with 50 μM glutamate increased their firing rate 127.4+/−44.4% compared to baseline. […] Therefore, it is appropriate to use glutamate as a neuronal death assay.

[3] = IBET858 treated mice compared to vehicle

Structure (SMILES): CC(=O)N1c2ccc(-c3ccc(CN4CCCCC4)cc3)cc2[C@H](Nc2ccccc2)CC1C (stereo in doubt) [IBET858]
- loss of neurons due to toxic Aβ oligomers (primary cortical neurons [1]): significantly prevents loss of neurons
- contextual recall (wild-type mice): significantly increased
- Casp3 gene expression levels (C57bl/6 mice; 5 week IBET858 treatment in vivo): unaffected
- autophagy and proteostasis genes (C57bl/6 mice; [3]): increased
- genes involved in metabolic pathways (C57bl/6 mice; [3]): downregulated
- day until which neurons lived, one experiment (primary cortical neurons [2]; 1 μM): 77 days
- lifetime longer than control neurons, one experiment (primary cortical neurons [2]; 1 μM): 86%
- neuronal survival (firing) after washout (primary cortical neurons [2]; 1 uM for 1 week followed by washout at day 14): prolonged neuronal survival that is maintained even in the absence of IBET
- activity patterns of long-lived treated neurons (primary cortical neurons [2]; 1 uM from day 7): maintain normal activity patterns
- day until which neurons continued to fire (primary cortical neurons [2]; 1 μM, control ceased firing on average at day 29): 45 days
- increase in firing rate compared to baseline after glutamate (primary cortical neurons [2]; 50 μM glutamate, day 14, control 127.4+/−44.4%): 129.3+/−26.2%
